Data from patent US20090082354A1, “PYRAZOLO[5, 1-C] [1,2,4] TRIAZINES, METHODS FOR PREPARATION AND USE THEREOF” (Wyeth, priority 2007, published 2009).

What follows are compounds tested against T1, Flag/GST-tagged recombinant human B-Raf (Homo sapiens, UniProt P15056) (assay: B-Raf kinase assay (phosphorylation of GST-MEK1, DELFIA readout)). Conditions: B-Raf 0.2 nM, non-active GST-MEK1 2.8 nM, 45 minutes at RT; compound 1 μM to 3 nM or 0.1 uM to 300 pm in half log dilutions.
T1 construct: Flag; GST; made in house; host or cells: Sf9 insect cells (B-Raf); E. coli (MEK1-GST)
Format: biochemical
Experimental: Testing For B-Raf Kinase Inhibitors
Compounds of Formula A were tested as B-Raf Kinase inhibitors that can inhibit growth of tumor cells which contain oncogenic forms of Receptor Tyrosine Kinases or K-Ras, or B-Raf kinase.
Reagents: Flag/GST-tagged recombinant human B-Raf produced in Sf9 insect cells, human non-active Mek-1-GST (recombinant protein produced in E. coli); and a phospho-MEK1 specific poly-clonal Ab from Cell Signaling Technology (Cat. #9121).
B-Raf1 Kinase Assay Procedure: B-Raf-1 is used to phosphorylate GST-MEK1. MEK1 phosphorylation is measured by a phospho-specific antibody (from Cell Signaling Technology, Cat. #9121) that detects phosphorylation of two serine residues at positions 217 and 221 on MEK1.
The following Kinase Assay Protocol was employed in accordance with the invention:
B-Raf Assay Stock Solutions:
1. Assay Dilution Buffer (ADB): 20 mM MOPS, pH 7.2, 25 mM B-glycerol phosphate, 5 mM EGTA, 1 mM sodium orthovanadate, 1 mM dithiothreitol, 0.01% Triton X-100. 2. Magnesium/ATP Cocktail: ADB solution (minus Triton X-100) plus 200 μM cold ATP and 40 mM magnesium chloride. 3. Active Kinase: Active B-Raf: used at 0.2 nM per assay point. 4. Non-active GST-MEK1: Use at 2.8 nM final concentration). 5. TBST-Tris (50 mM, pH 7.5), NaCl (150 mM), Tween-20 (0.05%)
7. Anti pMEK Ab (Upstate) 8. Anti-rabbit Ab/Europium conjugate (Wallac)
1. Add 25 μl of ADB containing B-Raf and Mek per assay (i.e. per well of a 96 well plate) 2. Add 25 μl of 0.2 mM ATP and 40 mM magnesium chloride in Magnesuium/ATP Cocktail. 3. Incubate for 45 minutes at RT with occasional shaking. 4. Transfer this mixture to an anti-GST Ab coated 96 well plate (Nunc Immunosorb plates coated o/n with a-GST. Plate freshly washed 3× with TBS-T before use. 5. Incubate o/n at […] in cold room. 6. Wash 3× with TBST, add Anti-Phospho MEK1 (1:1000, dilution depends upon lot) 7. Incubate for 60 minutes at RT in a shaking incubator 8. Wash 3× with TBST, add Anti-rabbit Ab/Europium conjugate (Wallac) (1:500, dilution depends upon lot) 9. Incubate for 60 minutes at RT on a platform shaker. 10. Wash plate 3× with TBS-T 11. Add 100 ul of Wallac Delfia Enhancement Solution and shake for 10 minutes. 12. Read plates in Wallac Victor model Plate Reader. 13. Collect data analyze in Excel for single point and IC50 determinations. Mallon R, et al (2001) Anal. Biochem. 294:48.
IC50 determinations were performed on compounds of Formula A from single point assays with >80% inhibition. Single point assay—% inhibition at 10 mg/mL (% inhibition=1—sample treated with compound of Formula A/untreated control sample). The % inhibition was determined for each compound concentration. IC50 determinations—Typically the B-Raf assay was run at compound concentrations from 1 μM to 3 nM or 0.1 uM to 300 pm in half log dilutions. Data was analyzed in Excel and transferred to Radis.

T1 sequence (P15056 whole entry): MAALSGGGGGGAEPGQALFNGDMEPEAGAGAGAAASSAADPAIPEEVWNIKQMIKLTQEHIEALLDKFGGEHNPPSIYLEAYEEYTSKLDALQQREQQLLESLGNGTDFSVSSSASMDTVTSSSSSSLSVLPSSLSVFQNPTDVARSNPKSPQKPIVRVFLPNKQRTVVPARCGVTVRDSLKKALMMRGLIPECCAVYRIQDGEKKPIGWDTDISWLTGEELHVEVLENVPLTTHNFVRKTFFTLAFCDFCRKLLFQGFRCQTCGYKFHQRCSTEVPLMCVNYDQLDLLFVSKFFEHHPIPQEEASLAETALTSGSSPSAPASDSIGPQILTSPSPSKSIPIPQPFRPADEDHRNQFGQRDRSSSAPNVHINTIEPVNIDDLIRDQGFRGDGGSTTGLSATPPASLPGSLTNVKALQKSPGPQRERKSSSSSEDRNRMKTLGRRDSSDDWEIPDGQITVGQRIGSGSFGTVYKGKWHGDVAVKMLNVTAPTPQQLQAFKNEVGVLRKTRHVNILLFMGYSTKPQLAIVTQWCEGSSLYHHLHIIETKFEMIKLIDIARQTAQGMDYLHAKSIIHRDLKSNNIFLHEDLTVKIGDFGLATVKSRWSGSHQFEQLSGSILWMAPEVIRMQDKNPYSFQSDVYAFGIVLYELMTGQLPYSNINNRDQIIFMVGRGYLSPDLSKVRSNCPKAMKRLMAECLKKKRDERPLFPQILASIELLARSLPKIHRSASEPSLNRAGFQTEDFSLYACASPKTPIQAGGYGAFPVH

IC50 [nM]	Structure (SMILES)
< 0.3	CN1CCCN(c2ccc(-c3cnnc4c(-c5ccc(Cl)c(O)c5)c(-c5ccncc5)nn34)cn2)CC1 [Example 14, 2-Chloro-5-{4-[6-(4-methyl-1,4-diazepan-1-yl)pyridin-3-yl]-7-pyridin-4-ylpyrazolo[5,1-c][1,2,4]triazin-8-yl}phenol]
329	CCOC(=O)c1nnc2c(-c3ccc(Cl)c(OC)c3)c(-c3ccncc3)nn2c1C1CC1 [Example 10, Ethyl 8-(4-chloro-3-methoxyphenyl)-4-cyclopropyl-7-pyridin-4-yl pyrazolo[5,1-c][1,2,4]triazine-3-carboxylate]
55	Cc1c(S(=O)(=O)c2ccccc2)nnc2c(-c3cccc(O)c3)c(-c3ccncc3)nn12 [Example 9, 3-[4-Methyl-3-(phenylsulfonyl)-7-pyridin-4-ylpyrazolo[5,1-c][1,2,4]triazin-8-yl]phenol]
< 0.3	CN1CCN(S(=O)(=O)c2cccc(-c3cnnc4c(-c5ccc(Cl)c(O)c5)c(-c5ccncc5)nn34)c2)CC1 [Example 15, 2-Chloro-5-(4-{3-[(4-methylpiperazin-1-yl)sulfonyl]phenyl}-7-pyridin-4-ylpyrazolo[5,1-c][1,2,4]triazin-8-yl)phenol]
0.3	CCOC(=O)N1C2CCC1CC(c1cnnc3c(-c4ccc(Cl)c(O)c4)c(-c4ccncc4)nn13)C2 (stereo not shown) [Example 18, Ethyl 3-[8-(4-chloro-3-hydroxyphenyl)-7-pyridin-4-ylpyrazolo[5,1-c][1,2,4]triazin-4-yl]-8-azabicyclo[3.2.1]octane-8-carboxylate]

The next lines start with the compound.

Structure (SMILES)	IC50 [nM]
COc1cccc(-c2c(-c3ccncc3)nn3c(C)c(C(=O)N4CCN(C)CC4)nnc23)c1 [Example 3]	1000
Oc1cccc(-c2c(-c3ccncc3)nn3c(C4CCCCC4)cnnc23)c1 [Example 2, 3-(4-cyclohexyl-7-pyridin-4-yl-pyrazolo[5,1-c][1,2,4]triazin-8-yl)phenol]	18
CN1CCCN(c2ccc(-c3cnnc4c(-c5cccc(O)c5)c(-c5ccncc5)nn34)cn2)CC1 [Example 6, 3-{4-[6-(4-Methyl-[1,4]diazepan-1-yl)-pyridin-3-yl]-7-pyridin-4-yl-pyrazolo[5,1-c][1,2,4]triazin-8yl}-phenol]	2
Oc1cccc(-c2c(-c3ccncc3)nn3c(-c4ccc(Br)nc4)cnnc23)c1 [Example 5, 3-[4-(6-Bromo-pyridin-3-yl)-7-pyridin-4-yl-pyrazolo[5,1-c][1,2,4]triazin-8-yl]-phenol]	91
CN1CCN(c2ccc(-c3cnnc4c(-c5cccc(O)c5)c(-c5ccncc5)nn34)cn2)CC1 [Example 7, 3-{4-[6-(4-Methyl-piperazin-1-yl)-pyridin-3-yl]-7-pyridin-4-yl-pyrazolo[5,1-c][1,2,4]triazin-8-yl}-phenol]	2
